This is an account of results in US9926297B2, “Bicyclic AZA compounds as muscarinic M1 receptor and/or M4 receptor agonists” (Heptares Therapeutics Limited, priority 2014, dated 2018).

Assay [1] addresses T1, human muscarinic M4 receptor (Homo sapiens, UniProt P08173).
T1 construct: expressed in transfected cells
T1 sequence (P08173 1-479): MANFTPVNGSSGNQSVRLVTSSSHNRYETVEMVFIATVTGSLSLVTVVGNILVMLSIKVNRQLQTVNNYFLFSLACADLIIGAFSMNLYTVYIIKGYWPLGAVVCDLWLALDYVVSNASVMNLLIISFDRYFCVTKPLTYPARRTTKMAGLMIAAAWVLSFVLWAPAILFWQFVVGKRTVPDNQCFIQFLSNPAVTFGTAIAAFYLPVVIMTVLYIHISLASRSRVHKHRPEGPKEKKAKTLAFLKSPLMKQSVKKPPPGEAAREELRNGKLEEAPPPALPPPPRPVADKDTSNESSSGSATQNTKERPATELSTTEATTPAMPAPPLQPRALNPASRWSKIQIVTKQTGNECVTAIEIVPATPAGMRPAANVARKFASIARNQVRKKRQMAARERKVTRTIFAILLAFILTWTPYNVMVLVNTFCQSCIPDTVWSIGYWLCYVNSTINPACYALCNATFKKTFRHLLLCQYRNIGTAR
The assay is described as follows: Alphascreen Surefire phospho-ERK1/2 functional assay, M4. The class given is cell-based. To be noted: for EC50: phospho-ERK1/2, * = variable results, read-out: pEC50 M4 (converted); for Emax: CHO, read-out: % Emax cf. ACh, M4, CHO cells stably expressing human M4. Background: Alpha assays give light when donor and acceptor beads are brought close together.

Assay [2] deals with T2, human muscarinic M1 receptor (Homo sapiens, UniProt P11229).
T2 sequence (P11229 1-460): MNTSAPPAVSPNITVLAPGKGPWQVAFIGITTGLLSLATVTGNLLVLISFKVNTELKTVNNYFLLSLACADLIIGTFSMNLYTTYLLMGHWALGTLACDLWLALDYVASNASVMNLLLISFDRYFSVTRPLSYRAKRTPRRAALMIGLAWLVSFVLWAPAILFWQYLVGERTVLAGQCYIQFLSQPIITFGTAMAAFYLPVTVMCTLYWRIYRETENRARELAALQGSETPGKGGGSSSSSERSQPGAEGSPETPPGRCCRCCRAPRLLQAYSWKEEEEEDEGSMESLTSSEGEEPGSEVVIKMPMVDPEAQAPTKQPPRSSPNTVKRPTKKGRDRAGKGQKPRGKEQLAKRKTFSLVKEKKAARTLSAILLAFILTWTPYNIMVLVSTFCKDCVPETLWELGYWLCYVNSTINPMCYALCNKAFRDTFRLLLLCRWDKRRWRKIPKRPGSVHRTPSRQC
As to the kind of experiment: Alphascreen Surefire phospho-ERK1/2 functional assay, M1. Type of assay: cell-based. To be noted: for EC50: phospho-ERK1/2, * = variable results, read-out: pEC50 M1 (converted); for Emax: CHO, read-out: % Emax cf. ACh, M1, CHO cells stably expressing human M1.
Description: CHO cells stably expressing the human muscarinic M1, M2, M3 or M4 receptor were plated (25K/well) onto 96-well tissue culture plates in MEM-alpha+10% dialysed FBS. Once adhered, cells were serum-starved overnight. Agonist stimulation was performed by the addition of 5 μL agonist to the cells for 5 min (37° C.). Media was removed and 50 μL of lysis buffer added. After 15 min, a 4 μL sample was transferred to 384-well plate and 7 μL of detection mixture added. Plates were incubated for 2 h with gentle agitation in the dark and then read on a PHERAstar plate reader.
pEC50 and Emax figures were calculated from the resulting data for each receptor subtype.

In assay [3] the target is human muscarinic M3 receptor (Homo sapiens, UniProt P20309). The assay is described as follows: Alphascreen Surefire phospho-ERK1/2 functional assay, M3. To be noted: for Emax: CHO, read-out: % Emax cf. ACh, M3, CHO cells stably expressing human M3; for Emax / % Emax cf. ACh, M3: relative to ACh; for EC50: pEC50 M3, CHO cells stably expressing human M3, phospho-ERK1/2, * = variable results; for % Emax cf. ACh, M3: CHO cells stably expressing human M3.
Sequence of human muscarinic M3 receptor (P20309 whole entry): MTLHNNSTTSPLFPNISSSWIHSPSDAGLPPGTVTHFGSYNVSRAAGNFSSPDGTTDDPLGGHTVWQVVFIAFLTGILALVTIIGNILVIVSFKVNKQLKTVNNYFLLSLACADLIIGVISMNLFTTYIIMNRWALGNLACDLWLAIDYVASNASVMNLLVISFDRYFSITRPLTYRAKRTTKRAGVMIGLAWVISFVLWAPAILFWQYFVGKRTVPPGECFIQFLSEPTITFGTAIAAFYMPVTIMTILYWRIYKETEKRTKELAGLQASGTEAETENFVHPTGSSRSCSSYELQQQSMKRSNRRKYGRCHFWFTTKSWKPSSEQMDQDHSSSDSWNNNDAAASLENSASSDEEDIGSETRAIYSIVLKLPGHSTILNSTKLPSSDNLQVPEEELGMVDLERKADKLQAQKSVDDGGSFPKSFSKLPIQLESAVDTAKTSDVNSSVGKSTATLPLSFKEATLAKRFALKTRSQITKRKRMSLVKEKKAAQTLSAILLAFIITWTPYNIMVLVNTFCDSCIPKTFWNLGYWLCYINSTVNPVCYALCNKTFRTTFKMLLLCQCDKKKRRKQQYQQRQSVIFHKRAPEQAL

Assay [4] has as its target T3, human muscarinic M2 receptor (Homo sapiens, UniProt P08172).
T3 sequence (P08172 1-466): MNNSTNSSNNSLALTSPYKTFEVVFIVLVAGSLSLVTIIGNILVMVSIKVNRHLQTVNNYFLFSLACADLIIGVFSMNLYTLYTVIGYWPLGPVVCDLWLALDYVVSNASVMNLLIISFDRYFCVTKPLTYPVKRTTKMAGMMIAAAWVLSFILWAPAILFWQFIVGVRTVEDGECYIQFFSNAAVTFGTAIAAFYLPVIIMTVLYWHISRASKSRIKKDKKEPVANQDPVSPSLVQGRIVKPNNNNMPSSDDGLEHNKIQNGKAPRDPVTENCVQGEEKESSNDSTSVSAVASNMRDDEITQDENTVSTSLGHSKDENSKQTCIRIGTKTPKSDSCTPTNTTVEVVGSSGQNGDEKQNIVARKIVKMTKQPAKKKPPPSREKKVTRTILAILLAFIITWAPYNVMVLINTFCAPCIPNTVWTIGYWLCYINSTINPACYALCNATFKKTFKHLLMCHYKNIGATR
The assay is described as follows: Alphascreen Surefire phospho-ERK1/2 functional assay, M2. Conditions: for Emax: CHO, read-out: % Emax cf. ACh, M2, CHO cells stably expressing human M2.

Where [5] appears, read: CHO cells stably expressing human M4.
Where [6] appears, read: CHO cells stably expressing human M1.

In the case of `CCOC(=O)N1CCC2(CC(N3CCC(N4CCCC45CCOC5=O)CC3)C2)C1` (single isomer, unassigned) [2-96 Isomer 2, ethyl 2-[4-(6-oxo-7-oxa-1-azaspiro[4.4]non-1-yl)piperidin-1-yl]-6-azaspiro[3.4]octane-6-carboxylate], the EC50 in assay [1] (setting [5]) was 126 nM; in assay [2] (setting [6]), over 20000 nM; in assay [3], over 20000 nM; in assay [4], over 20000 nM. Further, the Emax was determined as 63% in assay [1] (relative to ACh), 2% in assay [2] (relative to ACh), 5% in assay [3] and 1% in assay [4] (relative to ACh).
As to `CCOC(=O)N1CCC2(CC(N3CCC(N4CSC[C@@H]4C(=O)OC)CC3)C2)C1` (single isomer, unassigned) [2-97 Isomer 2], the EC50 in assay [1] (setting [5]) is 39.8 nM; in assay [2] (setting [6]), over 20000 nM; in assay [3], over 20000 nM; in assay [4], over 20000 nM. Also, the Emax was 37% in assay [1] (relative to ACh), 5% in assay [2] (relative to ACh), 3% in assay [3] and 3% in assay [4] (relative to ACh).
As to `CCOC(=O)N1CCC2(CC(N3CCC(N4CCC(F)(F)C4)CC3)C2)C1` (single isomer, unassigned) [2-100 Isomer 2, ethyl 2-[4-(3,3-difluoropyrrolidin-1-yl)piperidin-1-yl]-6-azaspiro[3.4]octane-6-carboxylate], the EC50 was 200 nM in assay [1] (setting [5]), over 20000 nM in assay [2] (setting [6]), over 20000 nM in assay [3] and over 20000 nM in assay [4]. Moreover, the Emax in assay [1] (relative to ACh) worked out at 55%; in assay [2] (relative to ACh), 16%; in assay [3], 5%; in assay [4] (relative to ACh) it was 4%.
With `CCOC(=O)N1CCC2(CC(N3CCC(N4CCC[C@@H]4CF)CC3)C2)C1` (single isomer, unassigned) [2-102 Isomer 2], the EC50 in assay [1] (setting [5]) is 316 nM; in assay [2] (setting [6]), 5010 nM; in assay [3], over 20000 nM; in assay [4], over 20000 nM. Also, the Emax stood at 45% in assay [1] (relative to ACh), 23% in assay [2] (relative to ACh), 11% in assay [3] and 1% in assay [4] (relative to ACh).
With `CCOC(=O)N1CCC2(CC(N3CCC(N4CCC[C@@H]4C(F)F)CC3)C2)C1` (single isomer, unassigned) [2-103 Isomer 2], the EC50 in assay [1] (setting [5]) is 20 nM; in assay [2] (setting [6]) it was 200 nM; in assay [3] it was over 20000 nM; in assay [4], over 20000 nM. Moreover, the Emax came out at 100% in assay [1] (relative to ACh), 26% in assay [2] (relative to ACh), 3% in assay [3] and 4% in assay [4] (relative to ACh).
Take `CCOC(=O)N1CCC2(CC(N3CCC(N4CCC[C@@H]4C(F)(F)F)CC3)C2)C1` (single isomer, unassigned) [2-104 Isomer 2]: the EC50 in assay [1] (setting [5]) is 15.8 nM; in assay [2] (setting [6]) it was 79.4 nM; in assay [3], over 20000 nM; in assay [4], over 20000 nM. Moreover, the Emax in assay [1] (relative to ACh) was found to be 111%; in assay [2] (relative to ACh), 102%; in assay [3], 8%; in assay [4] (relative to ACh), 8%.
For `CCOC(=O)N1CCC2(CC(N3CCC(N4CC(F)(F)C[C@@H]4C)CC3)C2)C1` (single isomer, unassigned) [2-106 Isomer 2], the EC50 is 20 nM in assay [1] (setting [5]), 126 nM in assay [2] (setting [6]), over 20000 nM in assay [3] and over 20000 nM in assay [4]. The Emax came to 102% in assay [1] (relative to ACh), 97% in assay [2] (relative to ACh), 5% in assay [3] and 10% in assay [4] (relative to ACh).
Turning to `CCOC(=O)N1CCC2(CC(N3CCC(N4CC(F)(F)C[C@@H]4CO)CC3)C2)C1` (single isomer, unassigned) [2-107 Isomer 2], the EC50 in assay [1] (setting [5]) is 6.31 nM; in assay [2] (setting [6]) it was 63.1 nM; in assay [3] it was over 20000 nM; in assay [4] it was over 20000 nM. Also, the Emax in assay [3] turned out to be 48%.
In the case of `CCOC(=O)N1CCC2(CC(N3CCC(N4CC(F)(F)C[C@@H]4C(C)O)CC3)C2)C1` (single isomer, unassigned) [2-109 Isomer 2], the EC50 in assay [1] (setting [5]) is 15.8 nM; in assay [2] (setting [6]), 398 nM; in assay [3] it was 10000 nM; in assay [4], over 20000 nM. Further, the values for the Emax in assay [1] (relative to ACh), in assay [2] (relative to ACh) and in assay [4] (relative to ACh) were 91%, 50% and 9%, respectively. In assay [3], the “% Emax cf. ACh, M3” value was 26%.
Regarding `CCOC(=O)N1CCC2(CC(N3CCC(N4CC(F)(F)C[C@@H]4C(C)O)CC3)C2)C1` (single isomer, unassigned) [2-109 Isomer 4], the EC50 in assay [1] (setting [5]) is 20 nM; in assay [2] (setting [6]) it was 316 nM; in assay [3], over 20000 nM. Moreover, the “% Emax cf. ACh, M4” value in assay [1] (CHO cells stably expressing human M4, relative to ACh) is reported as 82%. In addition, the “% Emax cf. ACh, M1” value in assay [2] (CHO cells stably expressing human M1, relative to ACh) is listed as 42%. The “% Emax cf. ACh, M3” value in assay [3] is 9%. Besides, in assay [4] (CHO cells stably expressing human M2, phospho-ERK1/2, * = variable results), the “pEC50 M2” value is recorded as under 4.7. In assay [4] (CHO cells stably expressing human M2, relative to ACh), the “% Emax cf. ACh, M2” value amounted to 15%.
With `CCOC(=O)N1CCC2(CC(N3CCC(N4CCCC4=O)CC3)C2)C1` (single isomer, unassigned) [2-111 Isomer 2, ethyl 2-[4-(2-oxopyrrolidin-1-yl)piperidin-1-yl]-6-azaspiro[3.4]octane-6-carboxylate], the EC50 in assay [1] (setting [5]) is 31.6 nM; in assay [2] (setting [6]), 501 nM; in assay [3], over 20000 nM; in assay [4] it was over 20000 nM. For the same molecule, the Emax in assay [1] (relative to ACh) worked out at 62%; in assay [2] (relative to ACh), 31%; in assay [3] it was 0%; in assay [4] (relative to ACh), 1%.
For the molecule `CCOC(=O)N1CCC2(CC(N3CCC(N4C(=O)CCC4(C)C)CC3)C2)C1` (single isomer, unassigned) [2-117 Isomer 2, ethyl 2-[4-(2,2-dimethyl-5-oxopyrrolidin-1-yl)piperidin-1-yl]-6-azaspiro[3.4]octane-6-carboxylate], the EC50 in assay [1] (setting [5]) is 63.1 nM; in assay [2] (setting [6]), 6310 nM; in assay [3], over 20000 nM; in assay [4] it was over 20000 nM. For the same molecule, the Emax in assay [1] (relative to ACh) was 96%; in assay [2] (relative to ACh) it was 99%; in assay [3], 7%; in assay [4] (relative to ACh) it was 4%.
Turning to `CCOC(=O)N1CCC2(CC(N3CCC(N4C(=O)OC[C@@H]4C(C)C)CC3)C2)C1` (single isomer, unassigned) [2-123 Isomer 2], the EC50 in assay [1] (setting [5]) was 316 nM; in assay [2] (setting [6]), 316 nM; in assay [3] it was over 20000 nM; in assay [4], over 20000 nM. Also, the Emax in assay [1] (relative to ACh) worked out at 93%; in assay [2] (relative to ACh) it was 114%; in assay [3], 29%; in assay [4] (relative to ACh), 8%.
Take `CCOC(=O)N1CCC2(CC(N3CCC(N4CCNC4=O)CC3)C2)C1` (single isomer, unassigned) [2-124 Isomer 2, ethyl 2-[4-(2-oxoimidazolidin-1-yl)piperidin-1-yl]-6-azaspiro[3.4]octane-6-carboxylate]: the EC50 in assay [1] (setting [5]) is 79.4 nM; in assay [2] (setting [6]) it was 631 nM; in assay [3] it was over 20000 nM; in assay [4], over 20000 nM. The Emax in assay [1] (relative to ACh) worked out at 77%; in assay [2] (relative to ACh), 45%; in assay [3], 0%; in assay [4] (relative to ACh), 2%.

Broadly, the Emax is the greatest response seen or fitted, relative to the assay's reference.
